One block for each molecule: values may come before it.
How the values were obtained:
Endothelin-1 receptor [1] = biological target: T1, Endothelin-1 receptor (Sus scrofa, UniProt Q29010); assay: Tested for its inhibitory activity against Endothelin A receptor
T1 sequence (Q29010 whole entry): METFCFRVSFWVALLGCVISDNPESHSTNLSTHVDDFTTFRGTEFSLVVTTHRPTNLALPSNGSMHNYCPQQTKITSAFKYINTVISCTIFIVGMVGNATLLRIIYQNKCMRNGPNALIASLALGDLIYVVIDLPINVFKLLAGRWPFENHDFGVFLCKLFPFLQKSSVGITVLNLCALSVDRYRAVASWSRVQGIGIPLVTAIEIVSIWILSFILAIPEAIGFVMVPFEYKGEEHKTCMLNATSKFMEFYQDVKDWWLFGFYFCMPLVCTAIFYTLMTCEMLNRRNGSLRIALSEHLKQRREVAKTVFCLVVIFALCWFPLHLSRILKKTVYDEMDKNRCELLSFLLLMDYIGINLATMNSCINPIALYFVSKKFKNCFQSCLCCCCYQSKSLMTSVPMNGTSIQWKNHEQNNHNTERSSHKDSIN

[2] = biological target: T2, Endothelin receptor type B (Rattus norvegicus, UniProt P21451); assay: Tested for its inhibitory activity against Endothelin B receptor
T2 sequence (P21451 whole entry): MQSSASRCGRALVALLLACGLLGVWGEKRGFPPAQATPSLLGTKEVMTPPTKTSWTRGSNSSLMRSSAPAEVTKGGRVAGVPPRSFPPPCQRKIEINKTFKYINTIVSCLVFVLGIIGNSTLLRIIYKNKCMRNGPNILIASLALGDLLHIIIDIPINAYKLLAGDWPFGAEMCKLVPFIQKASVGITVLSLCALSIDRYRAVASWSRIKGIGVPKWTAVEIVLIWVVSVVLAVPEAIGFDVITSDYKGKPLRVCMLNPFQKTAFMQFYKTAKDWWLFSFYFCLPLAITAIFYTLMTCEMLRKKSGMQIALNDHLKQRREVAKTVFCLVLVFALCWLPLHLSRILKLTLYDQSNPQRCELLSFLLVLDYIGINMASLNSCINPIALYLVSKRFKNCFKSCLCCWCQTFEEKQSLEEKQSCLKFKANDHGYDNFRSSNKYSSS

Endothelin-1 receptor [3] = biological target: T1, Endothelin-1 receptor; assay: Tested for its inhibitory activity against Endothelin A receptor; inactive
[4] = biological target: T2, Endothelin receptor type B; assay: Tested for its inhibitory activity against Endothelin B receptor; Compound was inactive
Rattus norvegicus [5] = assay: Tested for the dose at which depressor response attenuated by intravenous administration in conscious rat; assay type: functional
[6] = The half-life period was reported.; assay type: ADME
[7] = Tested for inhibition of ET-1 induced phosphoinositide (PI) turnover in A7r5 smooth muscle cells; assay type: functional, cell-based; conditions: Rattus norvegicus
Oryctolagus cuniculus [8] = species: Oryctolagus cuniculus; assay: Tested for inhibition of ET-1 induced contractile response in isolated rabbit aorta at the concentration of 1 uM; assay type: functional
[9] = biological target: Voltage-gated L-type calcium channel (Rattus norvegicus, UniProt P22002+Q02485+P27732); assay: Inhibition of [3H]PN-200-110 binding to L-type calcium channels in rat cortex membranes.; assay type: cell membranes, Membrane
Oryctolagus cuniculus [10] = species: Oryctolagus cuniculus; assay: Tested for inhibition of ET-1 induced contractile response in isolated rabbit aorta at the concentration of 0.1 uM; assay type: functional
Oryctolagus cuniculus [11] = species: Oryctolagus cuniculus; assay: Tested for inhibition of ET-1 induced contractile response in isolated rabbit aorta at the concentration of 10 uM; assay type: functional
[12] = biological target: T2, Endothelin receptor type B; assay: Tested for its ability to inhibit the binding of [125I]ET1 to the Endothelin B receptor in rat cerebellum membranes.; assay type: cell membranes, Membrane
Endothelin-1 receptor [13] = biological target: T1, Endothelin-1 receptor; assay: Tested for its ability to inhibit the binding of [125I]ET1 to the Endothelin A receptor in porcine thoracic aorta membranes.; assay type: cell membranes
Rattus norvegicus [14] = assay: Tested for the dose at which pressor response abolished by intravenous administration; assay type: functional

IC50 (Endothelin-1 receptor [1]): 422 nM
IC50 [2]: 2700 nM
SMILES: COC(=O)C1=C(C)N=C(C)/C(=C(/O)OC(=O)C2=C(C)N=C(C)/C(=C(/O)OC)[C@@H]2c2cccc([N+](=O)[O-])c2)[C@H]1c1cccc([N+](=O)[O-])c1

IC50 (Endothelin-1 receptor [3]): Not Active
IC50 [4]: Not Active
SMILES: COC(=O)C1=C(C)N=C(C)/C(=C(/O)OC(=O)C2=C(C)N=C(C)/C(=C(/O)OC)[C@H]2c2cccc([N+](=O)[O-])c2)[C@@H]1c1cccc([N+](=O)[O-])c1

half-life [6]: < 1 h
EC50 [7]: 143 nM
IC50 [9]: 592 nM
IC50 [12]: 295 nM
IC50 (Endothelin-1 receptor [13]): 15.9 nM
SMILES: COC(=O)C1=C(C)N=C(C)/C(=C(/O)OC(=O)C2=C(C)N=C(C)/C(=C(/O)OC)[C@@H]2c2cccc([N+](=O)[O-])c2)[C@@H]1c1cccc([N+](=O)[O-])c1
Dose (Rattus norvegicus [5]): 0.25 nM/kg
inhibition at 1 µM (Oryctolagus cuniculus [8]): 42%
inhibition at 0.1 µM (Oryctolagus cuniculus [10]): 33%
inhibition at 10 µM (Oryctolagus cuniculus [11]): 77%
Dose (Rattus norvegicus [14]): 10 mg/kg
